# Measured values taken from US20090087894A1, “Method for improving enzymatic activity of glycosyltransferases” (Japan Tobacco Inc., priority 2004, published 2009).
# B1: 467-N2C0: recombinant JT-ISH-467 α2,3-sialyltransferase lacking the signal peptide region, expressed in E. coli (protein)
# chain: MFVFCKKIFFLIFISLMILGGCNSDSKHNNSDGNITKNKTIEVYVDRATLPTIQQMTQIINENSNNKKLISWSRYPINDETLLESINGSFFKNRPELIKSLDSMILTNEIKKVIINGNTLWAVDVVNIIKSIEALGKKTEIELNFYDDGSAEYVRLYDFSRLPESEQEYKISLSKDNIQSSINGTQPFDNSIENIYGFSQLYPTTYHMLRADIFETNLPLTSLKRVISNNIKQMKWDYFTTFNSQQKNKFYNFTGFNPEKIKEQYKASPHENFIFIGTNSGTATAEQQIDILTEAKKPDSPIITNSIQGLDLFFKGHPSATYNQQIIDAHNMIEIYNKIPFEALIMTDALPDAVGGMGSSVFFSLPNTVENKFIFYKSDTDIENNALIQVMIELNIVNRNDVKLISDLQ
# modifications: OTHER INFORMATION: /gene=“467-23ST” /product=“beta-galactoside-alpha2,3-sialyltransferase”
# notes: recombinant JT-ISH-467 α2,3-sialyltransferase lacking the signal peptide region, expressed in E. coli
# B2: 467-N0C0: recombinant full-length α2,3-sialyltransferase of Photobacterium phosphoreum JT-ISH-467 expressed in E. coli (protein)
# chain: B1 chain
# modifications: OTHER INFORMATION: /gene=“467-23ST” /product=“beta-galactoside-alpha2,3-sialyltransferase”
# notes: recombinant full-length α2,3-sialyltransferase of Photobacterium phosphoreum JT-ISH-467 expressed in E. coli
# B3: 224-N1C0: recombinant JT-ISH-224 α2,3-sialyltransferase lacking the signal peptide region, expressed in E. coli (protein)
# chain: MLVFCKKMFFSVFISLMILGGCNSDSNHNNSDGNITKNKTIEVYVDRATLPTIQQMTQIINENSNNKKLISWSRYPINDEELLESINGSFFKNNSELIKSLDSMILTNDIKKVIINGNTLWAADVVNIIKSIEAFGKKTEIELNFYDDGSAEYVRLYDFSKLPESEQEYKISLSKDNILSSINGTQPFENVVENIYGFSQLYPTTYHMLRADIFETNLPLRSLKGVLSNNIKQMKWDYFKTFNSQQKDKFYNFTGFNPDEIMEQYKASPNKNFIFVGTNSGTATAEQQIDILTEAKNPNSPIITKSIQGFDLFFKGHPSATYNKQIIDAHNMIEIYNKIPFEALIMTDALPDAVGGMGSSVFFSLPNTVENKFIFYKSDTDIENNALIQVMIELNIVNRNDVKLISDLQ
# modifications: OTHER INFORMATION: /gene=“224-23ST” /product=“beta-galactoside-alpha-2,3-sialyltransferase”
# notes: recombinant JT-ISH-224 α2,3-sialyltransferase lacking the signal peptide region, expressed in E. coli
# B4: FAJ-N0C0: recombinant full-length α2,3-sialyltransferase of Vibrio sp. JT-FAJ-16 expressed in E. coli (protein)
# chain: MKNIITKRMLIILSSLFTIIGCNNDNSTTTNNNAIEIYVDRATLPTIQQMTKIVSQKTSNKKLISWSRYPITDKSLLKKINAEFFKEQFELTESLKNIILSENIDNLIIHGNTLWSIDVVDIIKEVNLLGKNIPIELHFYDDGSAEYVRIYEFSKLPESEQKYKTSLSKNNIKFSIDGTDSFKNTIENIYGFSQLYPTTYHMLRADIFDTTLKINPLRELLSNNIKQMKWDYFKDFNYKQKDIFYSLTNFNPKEIQEDFNKNSNKNFIFIGSNSATATAEEQINIISEAKKENSSIITNSISDYDLFFKGHPSATFNEQIINAHDMIEINNKIPFEALIMTGILPDAVGGMGSSVFFSIPKEVKNKFVFYKSGTDIENNSLIQVMLKLNLINRDNIKLISDI
# modifications: OTHER INFORMATION: /gene=“FAJ16-23ST” /product=“beta-galactoside-alpha2,3-sialyltransferase”
# notes: recombinant full-length α2,3-sialyltransferase of Vibrio sp; JT-FAJ-16 expressed in E. coli
# Legend:
# [1] = test system: glycosyltransferase (crude α2,6-sialyltransferase) of P. damsela ATCC35083; assay: Effect of NaCl on activity of crude α2,6-sialyltransferase from P. damselae ATCC35083; format: biochemical, Photobacterium damselae
# Procedure: (§1) ATCC33539T and ATCC35083, which were strains belonging to Photobacterium damselae but different from JT0160, were cultured and the resulting cells were used to prepare crude enzyme solutions according to the procedure for preparing a crude enzyme solution of P. damselae JT0160 (Purification and characterization of a Marine bacterial β-Galactoside α2,6-Sialyltransferase from Photobacterium damselae JT0160 J. Biochem. 120, 104-110, 1996). These crude enzymes were used in the following experiment.
# (§2) The enzyme reaction was accomplished in 20 μl reaction solution containing CMP-^14C-NeuAc as a glycosyl donor substrate (50.066 nmol, 25000 cpm), lactose as a glycosyl acceptor substrate (1 mmol), glycosyltransferase derived from various strains (1 mU or less) and NaCl at a concentration of 0.5 M (30° C., 1 minute). After completion of the enzymatic reaction, the radioactivity of NeuAc which was transferred to lactose under the respective conditions was measured to calculate the enzyme activity, thereby studying the effect of NaCl on the enzyme activity in each test range. More specifically, after completion of the reaction, each reaction solution was supplemented with 1.98 ml of 5 mM phosphate buffer (pH 6.8) and applied to a AG1−×2Resin (PO4^3− form, 0.2×2 cm) column. […] The eluate (0 to 2 ml) from this column was measured for its radioactivity.
# [2] = molecular target: T1, deletion mutant of recombinant α2,6-sialyltransferase; N2C1, derived from P. damselae JT0160 (Photobacterium damselae, UniProt O66375); assay: Effect of NaCl on enzyme activity of deletion mutant of recombinant α2,6-sialyltransferase N2C1; format: biochemical; details: 0.2 to 1.5 M NaCl in the reaction solution; FIG. 4
# T1 construct: lacks the N-terminal (Met) 107 amino acid residues and the C-terminal 176 amino acid residues; made in house; host or cells: E. coli, crude enzyme solution
# Procedure: The transformed E. coli cells were cultured at 30° C. at 180 rpm for 12 hours in L Broth (containing ampicillin at a final concentration of 0.2 mg/ml and IPTG at a final concentration of 1 mM), followed by centrifugation to collect the cells. The collected cells were suspended in 20 mM sodium cacodyrate buffer (pH 5.0) and then ultrasonicated at 4° C. to homogenize the cells, thereby preparing a crude enzyme solution containing a sialyltransferase protein from the N2C1 gene. […] This N2C1 gene-derived sialyltransferase protein was used in the following experiment.
# The enzyme reaction was accomplished in 20 μl reaction solution containing CMP-^14C-NeuAc as a glycosyl donor substrate (50.066 nmol, 25000 cpm), lactose as a glycosyl acceptor substrate (1 mmol), N2C1 (0.5 to 1.5 mU) and NaCl at a concentration varying from 0 to 2.5 M (30° C., 1 minute). After completion of the enzyme reaction, the radioactivity of NeuAc which was transferred to lactose under the respective conditions was measured to calculate the enzyme activity, thereby studying the effect of NaCl on the enzyme activity in each test range.
# More specifically, after completion of the reaction, each reaction solution was supplemented with 1.98 ml of 5 mM phosphate buffer (pH 6.8) and applied to a AG1−×2Resin (PO43-form, 0.2×2 cm) column. […] The eluate (0 to 2 ml) from this column was measured for its radioactivity.
# [3] = test system: glycosyltransferase (crude α2,6-sialyltransferase) of P. damsela ATCC33539; assay: Effect of NaCl on activity of crude α2,6-sialyltransferase from P. damselae ATCC33539; format: biochemical, Photobacterium damselae
# Procedure: as §1, §2
# [4] = Confirmation of α2,3-sialyltransferase activity with pyridylaminated lactose as glycosyl acceptor, HPLC; format: biochemical; details: pyridylaminated lactose and CMP-sialic acid, 25° C.
# Description: Determination of the binding mode of sialic acid was accomplished by using a pyridylaminated sugar chain. The resulting enzyme was used to carry out an enzymatic reaction in the presence of a pyridylaminated sugar chain as a glycosyl acceptor substrate. The pyridylaminated sugar chain used for analysis was pyridylaminated lactose (Galβ1, 4Glc-PA, PA-Sugar Chain 026, Takara Bio Inc., Japan). As a standard, pyridylaminated α2,3sialyllactose (NeuAcα2,3Galβ1, 4Glc-PA, PA-Sugar Chain 029, Takara Bio Inc., Japan) was used. The glycosyl acceptor substrate, CMP-NeuAc and the enzyme were dissolved at 2.0 mM, 5.7 μM and about 20 mU/ml, respectively, in 25 μl of 20 mM cacodylate buffer (pH 6.0) or Bis-Tris buffer (pH 6.0), and then reacted at 25° C. for 3 to 18 hours. After completion of the reaction, the reaction solution was treated at 100° C. for 2 minutes to deactivate the enzyme, followed by HPLC to analyze the reaction product.
# The HPLC system used was, Shimadzu LC10A (Shimadzu Corporation, Japan) and the analytical column used was Takara PALPAK Type R (Takara Bio Inc., Japan). The column which had been equilibrated with 100 mM acetate-triethylamine (pH 5.0) containing 0.15% N-butanol was injected with the reaction solution diluted with Eluent A (100 mM acetate-triethylamine, pH 5.0). For elution of the pyridylaminated sugar chain, Eluent A (100 mM acetate-triethylamine, pH 5.0) and Eluent B (100 mM acetate-triethylamine containing 0.5% n-butanol, pH 5.0) were used to successively elute the pyridylaminated sugar chain with a linear gradient of 30% to 100% Eluent B (0 to 35 minutes) and then 100% Eluent B (35 to 50 minutes). The analysis was performed under the following conditions: flow rate: 1 ml/min, column temperature: 40° C., detection: fluorescence (Ex: 320 nm, Em: 400 nm).
# As in the case of Reference Example 1-1, pyridylaminated lactose was used as a glycosyl acceptor to carry out the enzyme reaction. After completion of the reaction, the reaction solution was thermally treated at 95° C. for 5 minutes to deactivate the enzyme, followed by HPLC analysis. It should be noted that the enzyme reaction was accomplished at 25° C. for 6 hours using pyridylaminated lactose and CMP-sialic acid dissolved at 2.0 μM and 5.7 μM, respectively, in 25 μl of 20 mM cacodylate buffer (pH 6.0) (Reaction 1). On the other hand, a control experiment (Reaction 2) was carried out using a reaction solution free from CMP-sialic acid. Further, to clarify the retention time of standards, the crude enzyme solution was deactivated by thermal treatment (95° C., 5 minutes) and tested in the presence of pyridylaminated lactose and pyridylaminated α2,3-sialyllactose.
# T1 sequence (O66375 entry or part of it, stated change not applied): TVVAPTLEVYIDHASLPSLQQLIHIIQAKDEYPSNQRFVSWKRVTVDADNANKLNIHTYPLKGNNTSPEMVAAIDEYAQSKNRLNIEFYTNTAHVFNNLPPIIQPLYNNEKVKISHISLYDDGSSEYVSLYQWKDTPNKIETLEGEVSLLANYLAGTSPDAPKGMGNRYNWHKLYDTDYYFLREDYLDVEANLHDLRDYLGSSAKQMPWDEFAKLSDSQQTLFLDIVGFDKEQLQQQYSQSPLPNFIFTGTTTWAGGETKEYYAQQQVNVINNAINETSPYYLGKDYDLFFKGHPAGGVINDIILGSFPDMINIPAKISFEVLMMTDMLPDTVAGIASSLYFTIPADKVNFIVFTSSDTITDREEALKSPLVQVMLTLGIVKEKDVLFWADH
molecule,measurement,setting,value
[Cl-].[Na+] [NaCl],Radioactivity,"[1]; +NaCl, 0.5 M, 30° C., 1 minute",9733
same,+NaCl/−NaCl,[1]; NaCl 0.5 M,1.3
same,enzyme activity compared to the absence of NaCl,[2],activated
same,Radioactivity,"[3]; +NaCl, 0.5 M, 30° C., 1 minute",11071
same,+NaCl/−NaCl,[3]; NaCl 0.5 M,1.2
B1,"α2,3-sialyltransferase activity (formation of pyridylaminated α2,3-sialyllactose)",[4],"had α2,3-sialyltransferase activity"
B2,"α2,3-sialyltransferase activity (formation of pyridylaminated α2,3-sialyllactose)",[4],"found to have α2,3-sialyltransferase activity"
B3,"α2,3-sialyltransferase activity (formation of pyridylaminated α2,3-sialyllactose)",[4],"a peak of pyridylaminated α2,3-sialyllactose was detected"
B4,"α2,3-sialyltransferase activity (formation of pyridylaminated α2,3-sialyllactose)",[4],"a peak of pyridylaminated α2,3-sialyllactose was detected"
